Source: article PMC8286840, “Identifying SARS-CoV-2 antiviral compounds by screening for small molecule inhibitors of Nsp3 papain-like protease” (Biochemical Journal, 2021)
Structures can show the parent of a compound that is named as a salt. Where two headings read alike, the source gives them in different places.

Tests used:
[1] = biological target: T1, SARS-CoV-2 PLpro (nsp3 1564–1878) (Severe acute respiratory syndrome coronavirus 2, UniProt P0DTD1); assay: biochemical; set-up: FRET-quenched peptide (Pro3) cleavage by PLpro, 10 min pre-incubation, slope over 20 min, normalised to no-compound control; settings: low concentration screen, read-out: % of control remaining
[2] = biological target: T1, SARS-CoV-2 PLpro (nsp3 1564–1878); assay: biochemical; set-up: FRET-quenched peptide (Pro3) cleavage by PLpro, 10 min pre-incubation, slope over 20 min, normalised to no-compound control; settings: high concentration screen, read-out: % of control remaining

For `O=C(O)c1cc(=O)[nH]c(=O)[nH]1` [Orotic acid], which remaining activity at 1.25 µM ([1]; Well no.=6207) is on record?
Its remaining activity at 1.25 µM is 108%.

What about the remaining activity at 3.75 µM ([2]; Well no.=6207) of the same compound?
The remaining activity at 3.75 µM was 99.7%.

What does the source list for `O=C(Nc1ccc(O)cc1)c1ccccc1O` [Osalmid]?
remaining activity at 1.25 µM ([1]; Well no.=8152): 100%; remaining activity at 3.75 µM ([2]; Well no.=8152): 100%

`COc1ccc2ccc(=O)oc2c1CC=C(C)C` [Osthole] was tested. Which remaining activity at 1.25 µM ([1]; Well no.=3440) did it give?
The remaining activity at 1.25 µM was 91.5%.

What about the remaining activity at 1.25 µM ([1]; Well no.=8333) of the same compound?
The remaining activity at 1.25 µM was 98.6%.

What about the remaining activity at 3.75 µM ([2]; Well no.=3440) of the same compound?
Its remaining activity at 3.75 µM is 88.2%.

What about the remaining activity at 3.75 µM ([2]; Well no.=8333) of the same compound?
Its remaining activity at 3.75 µM is 94.5%.

Which results are given for `CCNC1(C(N)=O)CCN(c2ncnc3c2nc(-c2ccccc2Cl)n3-c2ccc(Cl)cc2)CC1` [Otenabant (CP-945598) HCl]?
remaining activity at 1.25 µM ([1]; Well no.=8494): 103%; remaining activity at 3.75 µM ([2]; Well no.=8494): 108%

What does the source list for `CCNC1(C(N)=O)CCN(c2ncnc3c2nc(-c2ccccc2Cl)n3-c2ccc(Cl)cc2)CC1` [Otenabant]?
remaining activity at 1.25 µM ([1]; Well no.=8393): 93.1%; remaining activity at 3.75 µM ([2]; Well no.=8393): 87.6%

For `CCCCCCCCOc1ccccc1C(=O)Nc1ccc(C(=O)OCC[N+](C)(CC)CC)cc1` [Otilonium (bromide)], which remaining activity at 1.25 µM ([1]; Well no.=6315) is on record?
The remaining activity at 1.25 µM was 103%.

And the remaining activity at 3.75 µM ([2]; Well no.=6315)?
The remaining activity at 3.75 µM was 97.2%.

Which remaining activity at 1.25 µM ([1]; Well no.=4893) does the source give for `CCCCCCCCOc1ccccc1C(=O)Nc1ccc(C(=O)OCC[N+](C)(CC)CC)cc1` [Otilonium Bromide] here?
The remaining activity at 1.25 µM was 92.9%.

And the remaining activity at 3.75 µM ([2]; Well no.=4893)?
Its remaining activity at 3.75 µM is 93.3%.

For `C[C@@H]1O[C@@H](O[C@H]2C[C@@H](O)[C@]3(CO)[C@H]4[C@H](O)C[C@]5(C)[C@@H](C6=CC(=O)OC6)CC[C@]5(O)[C@@H]4CC[C@]3(O)C2)[C@H](O)[C@H](O)[C@H]1O` [Ouabain], which remaining activity at 1.25 µM ([1]; Well no.=1088) is on record?
Its remaining activity at 1.25 µM is 93.1%.

What about the remaining activity at 3.75 µM ([2]; Well no.=1088) of the same compound?
Its remaining activity at 3.75 µM is 94.6%.

How did the remaining activity at 1.25 µM ([1]; Well no.=7552) turn out when `Cc1onc(-c2ccccc2)c1C(=O)N[C@@H]1C(=O)N2[C@@H]1SC(C)(C)[C@@H]2C(=O)O` [Oxacillin (sodium monohydrate)] was run?
Its remaining activity at 1.25 µM is 99.7%.

And the remaining activity at 3.75 µM ([2]; Well no.=7552)?
The remaining activity at 3.75 µM was 97.5%.

For `Cc1onc(-c2ccccc2)c1C(=O)N[C@@H]1C(=O)N2[C@@H]1SC(C)(C)[C@@H]2C(=O)O` [Oxacillin], which remaining activity at 1.25 µM ([1]; Well no.=2057) is on record?
Its remaining activity at 1.25 µM is 105%.

And the remaining activity at 3.75 µM ([2]; Well no.=2057)?
The remaining activity at 3.75 µM was 103%.

`O=C(O)CCc1nc(-c2ccccc2)c(-c2ccccc2)o1` [Oxaprozin] was tested. Which remaining activity at 1.25 µM ([1]; Well no.=1090) did it give?
The remaining activity at 1.25 µM was 102%.

And the remaining activity at 3.75 µM ([2]; Well no.=1090)?
Its remaining activity at 3.75 µM is 104%.

Which results are given for `O=c1[nH]c2ccccc2n1CCCN1CCN(C(c2ccccc2)c2ccccc2)CC1` [Oxatomide]?
remaining activity at 1.25 µM ([1]; Well no.=994): 103%; remaining activity at 1.25 µM ([1]; Well no.=1855): 95.4%; remaining activity at 3.75 µM ([2]; Well no.=994): 101%; remaining activity at 3.75 µM ([2]; Well no.=1855): 98.9%

What does the source list for `NC(=O)N1c2ccccc2CC(=O)c2ccccc21` [Oxcarbazepine]?
remaining activity at 1.25 µM ([1]; Well no.=2053): 103%; remaining activity at 3.75 µM ([2]; Well no.=2053): 104%

Which results are given for `COC(=O)Nc1nc2cc([S+]([O-])c3ccccc3)ccc2[nH]1` (centres unmarked) [Oxfendazole]?
remaining activity at 1.25 µM ([1]; Well no.=2059): 105%; remaining activity at 3.75 µM ([2]; Well no.=2059): 105%

With `CCCOc1ccc2[nH]c(NC(=O)OC)nc2c1` [Oxibendazole] as the compound, how does the remaining activity at 1.25 µM ([1]; Well no.=2061) read?
The remaining activity at 1.25 µM was 99%.

What about the remaining activity at 3.75 µM ([2]; Well no.=2061) of the same compound?
The remaining activity at 3.75 µM was 98.3%.

How did the remaining activity at 1.25 µM ([1]; Well no.=6940) turn out when `NCCc1cc(O)c(O)cc1O` [Oxidopamine (hydrobromide)] was run?
The remaining activity at 1.25 µM was 92%.

And the remaining activity at 3.75 µM ([2]; Well no.=6940)?
Its remaining activity at 3.75 µM is 92.3%.

Which results are given for `NC(=O)CN1CC(O)CC1=O` (centres unmarked) [Oxiracetam]?
remaining activity at 1.25 µM ([1]; Well no.=1040): 91.2%; remaining activity at 3.75 µM ([2]; Well no.=1040): 97.5%

Which results are given for `CCn1cc(C(=O)O)c(=O)c2cc3c(cc21)OCO3` [Oxolinic acid]?
remaining activity at 1.25 µM ([1]; Well no.=1134): 98.1%; remaining activity at 3.75 µM ([2]; Well no.=1134): 98.5%

Which remaining activity at 1.25 µM ([1]; Well no.=1138) does the source give for `C[N+](C)(C)CC#CCN1CCCC1=O` [Oxotremorine methiodide] here?
Its remaining activity at 1.25 µM is 96.9%.

What about the remaining activity at 3.75 µM ([2]; Well no.=1138) of the same compound?
The remaining activity at 3.75 µM was 97.9%.

For `O=C1CCCN1CC#CCN1CCCC1` [Oxotremorine], which remaining activity at 1.25 µM ([1]; Well no.=1673) is on record?
Its remaining activity at 1.25 µM is 104%.

And the remaining activity at 3.75 µM ([2]; Well no.=1673)?
The remaining activity at 3.75 µM was 102%.

`Cc1cc(C(C)(C)C)c(O)c(C)c1CC1=NCCN1` [Oxymetazoline (hydrochloride)] was tested. Which remaining activity at 1.25 µM ([1]; Well no.=7327) did it give?
The remaining activity at 1.25 µM was 102%.

And the remaining activity at 3.75 µM ([2]; Well no.=7327)?
The remaining activity at 3.75 µM was 99.6%.

What does the source list for `Cc1cc(C(C)(C)C)c(O)c(C)c1CC1=NCCN1` [Oxymetazoline hydrochloride]?
remaining activity at 1.25 µM ([1]; Well no.=896): 103%; remaining activity at 3.75 µM ([2]; Well no.=896): 101%

Which remaining activity at 1.25 µM ([1]; Well no.=4718) does the source give for `CN(C)[C@@H]1C(O)=C(C(N)=O)C(=O)[C@@]2(O)C(O)=C3C(=O)c4c(O)cccc4[C@@](C)(O)[C@H]3[C@H](O)[C@@H]12` [Oxytetracycline dihydrate] here?
The remaining activity at 1.25 µM was 102%.

What about the remaining activity at 3.75 µM ([2]; Well no.=4718) of the same compound?
Its remaining activity at 3.75 µM is 99.6%.

Which results are given for `CC[C@H](C)[C@@H]1NC(=O)[C@H](Cc2ccc(O)cc2)NC(=O)[C@@H](N)CSSC[C@@H](C(=O)N2CCC[C@H]2C(=O)N[C@@H](CC(C)C)C(=O)NCC(N)=O)NC(=O)[C@H](CC(N)=O)NC(=O)[C@H](CCC(N)=O)NC1=O` [Oxytocin (acetate)]?
remaining activity at 1.25 µM ([1]; Well no.=8107): 107%; remaining activity at 3.75 µM ([2]; Well no.=8107): 104%

How did the remaining activity at 1.25 µM ([1]; Well no.=4726) turn out when `O=C(O)/C=C/c1ccc(Cn2ccnc2)cc1` [Ozagrel HCl] was run?
The remaining activity at 1.25 µM was 108%.

And the remaining activity at 3.75 µM ([2]; Well no.=4726)?
The remaining activity at 3.75 µM was 101%.

For `O=C(O)/C=C/c1ccc(Cn2ccnc2)cc1` [Ozagrel], which remaining activity at 1.25 µM ([1]; Well no.=1886) is on record?
Its remaining activity at 1.25 µM is 91.5%.

And the remaining activity at 3.75 µM ([2]; Well no.=1886)?
Its remaining activity at 3.75 µM is 93.9%.

Which remaining activity at 1.25 µM ([1]; Well no.=7422) does the source give for `CC(C)Oc1ccc(-c2nc(-c3cccc4c3CC[C@@H]4NCCO)no2)cc1C#N` [Ozanimod] here?
Its remaining activity at 1.25 µM is 104%.

And the remaining activity at 3.75 µM ([2]; Well no.=7422)?
Its remaining activity at 3.75 µM is 106%.

For `Nc1ncnc2c1ncn2[C@@H]1O[C@H](COP(=O)(O)OP(=O)(O)OP(=O)(O)OP(=O)(O)OC[C@H]2O[C@@H](n3cnc4c(N)ncnc43)[C@H](O)[C@@H]2O)[C@@H](O)[C@H]1O` [P1,P4-Di(adenosine-5')tetraphosphate triammonium], which remaining activity at 1.25 µM ([1]; Well no.=731) is on record?
Its remaining activity at 1.25 µM is 96.1%.

What about the remaining activity at 3.75 µM ([2]; Well no.=731) of the same compound?
Its remaining activity at 3.75 µM is 94.1%.

Which results are given for `O=[N+]([O-])c1cn2c(n1)OC[C@@H](OCc1ccc(OC(F)(F)F)cc1)C2` [PA-824]?
remaining activity at 1.25 µM ([1]; Well no.=4709): 104%; remaining activity at 3.75 µM ([2]; Well no.=4709): 104%

What does the source list for `C=CCc1cccc(/C=N/NC(=O)CN2CCN(Cc3ccccc3)CC2)c1O` [PAC-1]?
remaining activity at 1.25 µM ([1]; Well no.=4697): 103%; remaining activity at 1.25 µM ([1]; Well no.=6200): 107%; remaining activity at 3.75 µM ([2]; Well no.=4697): 101%; remaining activity at 3.75 µM ([2]; Well no.=6200): 93.7%

Which remaining activity at 1.25 µM ([1]; Well no.=4390) does the source give for `CCCCCCCCCCCCCCCC(=O)C(F)(F)F` [PACOCF3] here?
Its remaining activity at 1.25 µM is 102%.

What about the remaining activity at 3.75 µM ([2]; Well no.=4390) of the same compound?
Its remaining activity at 3.75 µM is 100%.

For `CCCCCCCCCCCCCCCCOC[C@@H](COP(=O)([O-])OCC[N+](C)(C)C)OC(C)=O` [PAF C16], which remaining activity at 1.25 µM ([1]; Well no.=4445) is on record?
The remaining activity at 1.25 µM was 103%.

And the remaining activity at 3.75 µM ([2]; Well no.=4445)?
The remaining activity at 3.75 µM was 98.2%.

Which results are given for `CCCCCCCC/C=C\CCCCCCCCOC[C@H](COP(=O)([O-])OCC[N+](C)(C)C)OC(C)=O` [PAF C18:1]?
remaining activity at 1.25 µM ([1]; Well no.=4453): 99.9%; remaining activity at 3.75 µM ([2]; Well no.=4453): 99.9%

What does the source list for `CN(C)Cc1c(C(=O)NCCOc2ccc(C(=O)NO)cc2)oc2ccccc12` [PCI-24781]?
remaining activity at 1.25 µM ([1]; Well no.=4840): 101%; remaining activity at 3.75 µM ([2]; Well no.=4840): 100%
